System: 772245-204-R-J1-PDC complex spheroid growth
Experiment: Anticancer human tumor 772245-204-R-J1-PDC patient-derived rhabdomyosarcoma cell line growth inhibition [Asc]
Conditions: for IC50: curve of first compound; for viability, T/C: stronger effect = lower value
Method in brief: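 Concentration series start at each agent's clinical Cmax, or at 10 microM when none is established, and drop in half-log steps; agents are applied alone or together to complex spheroids built with HUVEC and hMSC.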

[1] = second compound 0.1 µM, first compound 0.0316 µM
[2] = second compound 0.1 µM, first compound 0.1 µM
[3] = second compound 0.1 µM, first compound 0.316 µM
[4] = second compound 0.1 µM, first compound 1 µM
[5] = second compound 0.1 µM, first compound 3.16 µM
[6] = second compound 0.1 µM, first compound 10 µM
[7] = second compound 0.316 µM, first compound 0.0316 µM
[8] = second compound 0.316 µM, first compound 0.1 µM
[9] = second compound 0.316 µM, first compound 0.316 µM
[10] = second compound 0.316 µM, first compound 1 µM
[11] = second compound 0.316 µM, first compound 3.16 µM
[12] = second compound 0.316 µM, first compound 10 µM
[13] = second compound 1 µM, first compound 0.0316 µM
[14] = second compound 1 µM, first compound 0.1 µM
[15] = second compound 1 µM, first compound 0.316 µM
[16] = second compound 1 µM, first compound 1 µM
[17] = second compound 1 µM, first compound 3.16 µM
[18] = second compound 1 µM, first compound 10 µM
[19] = second compound 3.16 µM, first compound 0.0316 µM
[20] = second compound 3.16 µM, first compound 0.1 µM
[21] = second compound 3.16 µM, first compound 0.316 µM
[22] = second compound 3.16 µM, first compound 1 µM
[23] = second compound 3.16 µM, first compound 3.16 µM
[24] = second compound 3.16 µM, first compound 10 µM
[25] = second compound 10 µM, first compound 0.0316 µM
[26] = second compound 10 µM, first compound 0.1 µM
[27] = second compound 10 µM, first compound 0.316 µM
[28] = second compound 10 µM, first compound 1 µM
[29] = second compound 10 µM, first compound 3.16 µM
[30] = second compound 10 µM, first compound 10 µM
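Note: compound exposure lasted seven days.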
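Throughout, for viability, T/C: 100% = DMSO vehicle control viability.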

Work on `C=C(F)C(=O)N1CCN(c2nc(OCC3CCCN3C)nc3c2CCN(c2cccc4cccc(Cl)c24)C3)CC1CC#N` (stereo not given) + Cc1c(S(C)(=O)=O)c(-c2cc(F)cc(N3CCN(c4ccc(NS(=O)(=O)c5ccc(NC(CCN6CCC(C(=O)OCCCP(=O)(O)O)CC6)CSc6ccccc6)c(S(=O)(=O)C(F)(F)F)c5)cc4)CC3)c2)c(-c2ccc(Cl)cc2)n1C(C)C yielded an IC50 (second compound 0.1 µM) of 1.57 µM, an IC50 (second compound 0.316 µM) of 0.772 µM and an IC50 (second compound 1 µM) of less than 0.0316 µM. The IC50 (second compound 3.16 µM) was less than 0.0316 µM, the IC50 (second compound 10 µM) was less than 0.0316 µM and the viability, T/C [1] was 79%. The viability, T/C [2] was 77.7%, the viability, T/C [3] was 72.6% and the viability, T/C [4] was 70.7%. For the same molecule, the viability, T/C [5] was 18.1%, the viability, T/C [6] was 0.14% and the viability, T/C [7] was 60.4%. It also gave a viability, T/C [8] of 65.2%, a viability, T/C [9] of 52.3% and a viability, T/C [10] of 47.8%. It also gave a viability, T/C [11] of 3.54%, a viability, T/C [12] of 0.12% and a viability, T/C [13] of 40%. The viability, T/C [14] was 45.9%, the viability, T/C [15] was 35.4% and the viability, T/C [16] was 30.9%. For the same molecule, the viability, T/C [17] was 2.95%, the viability, T/C [18] was 0.1% and the viability, T/C [19] was 35.7%. The viability, T/C [20] was 39.7%, the viability, T/C [21] was 45.7% and the viability, T/C [22] was 20.1%. It also gave a viability, T/C [23] of 1.47%, a viability, T/C [24] of 0.11% and a viability, T/C [25] of 43.3%. For the same molecule, the viability, T/C [26] was 39.4%, the viability, T/C [27] was 37.3% and the viability, T/C [28] was 17.6%. It also gave a viability, T/C [29] of 1.02% and a viability, T/C [30] of 0.18%.

Molecule `C=CC(=O)N1CCN(c2nc(=O)n(-c3c(C)ccnc3C(C)C)c3nc(-c4c(O)cccc4F)c(F)cc23)C(C)C1` (stereo not given) + Cc1c(S(C)(=O)=O)c(-c2cc(F)cc(N3CCN(c4ccc(NS(=O)(=O)c5ccc(NC(CCN6CCC(C(=O)OCCCP(=O)(O)O)CC6)CSc6ccccc6)c(S(=O)(=O)C(F)(F)F)c5)cc4)CC3)c2)c(-c2ccc(Cl)cc2)n1C(C)C has an IC50 (second compound 0.1 µM) of 6.32 µM, an IC50 (second compound 0.316 µM) of 2.43 µM and an IC50 (second compound 1 µM) of less than 0.0316 µM. It also gave an IC50 (second compound 3.16 µM) of 0.0579 µM, an IC50 (second compound 10 µM) of less than 0.0316 µM and a viability, T/C [1] of 85%. The viability, T/C [2] was 79.7%, the viability, T/C [3] was 89.5% and the viability, T/C [4] was 67.7%. For the same molecule, the viability, T/C [5] was 69.5%, the viability, T/C [6] was 38.9% and the viability, T/C [7] was 66.9%. It also gave a viability, T/C [8] of 69.2%, a viability, T/C [9] of 68.2% and a viability, T/C [10] of 59.9%. The viability, T/C [11] was 47.1%, the viability, T/C [12] was 11.8% and the viability, T/C [13] was 49.9%. The viability, T/C [14] was 43%, the viability, T/C [15] was 44.9% and the viability, T/C [16] was 29.3%. For the same molecule, the viability, T/C [17] was 15.1%, the viability, T/C [18] was 15.1% and the viability, T/C [19] was 41.8%. It also gave a viability, T/C [20] of 62.3%, a viability, T/C [21] of 37.9% and a viability, T/C [22] of 26.5%. It also gave a viability, T/C [23] of 15.8%, a viability, T/C [24] of 5.71% and a viability, T/C [25] of 48.5%. For the same molecule, the viability, T/C [26] was 41.3%, the viability, T/C [27] was 41.3% and the viability, T/C [28] was 30.6%. It also gave a viability, T/C [29] of 13.5% and a viability, T/C [30] of 6.87%.

In the case of `CCN1C(C(=O)NC23CCC(C(=O)O)(CC2)CC3)C(c2cccc(Cl)c2F)C2(C(=O)Nc3cc(Cl)ccc32)C12CCCCC2` (stereo not given) + Cc1c(S(C)(=O)=O)c(-c2cc(F)cc(N3CCN(c4ccc(NS(=O)(=O)c5ccc(NC(CCN6CCC(C(=O)OCCCP(=O)(O)O)CC6)CSc6ccccc6)c(S(=O)(=O)C(F)(F)F)c5)cc4)CC3)c2)c(-c2ccc(Cl)cc2)n1C(C)C, the IC50 (second compound 0.1 µM) is reported as 1.3 µM, the IC50 (second compound 0.316 µM) is reported as 0.405 µM and the IC50 (second compound 1 µM) is reported as 0.0258 µM. It also gave an IC50 (second compound 3.16 µM) of less than 0.00949 µM, an IC50 (second compound 10 µM) of less than 0.00949 µM and a viability, T/C (second compound 0.1 µM, first compound 0.00949 µM) of 80%. The viability, T/C (second compound 0.1 µM, first compound 0.03 µM) was 84.5%, the viability, T/C (second compound 0.1 µM, first compound 0.0949 µM) was 71.5% and the viability, T/C (second compound 0.1 µM, first compound 0.3 µM) was 78.3%. For the same molecule, the viability, T/C (second compound 0.1 µM, first compound 0.949 µM) was 57.6%, the viability, T/C (second compound 0.1 µM, first compound 3 µM) was 29.6% and the viability, T/C (second compound 0.316 µM, first compound 0.00949 µM) was 57.2%. For the same molecule, the viability, T/C (second compound 0.316 µM, first compound 0.03 µM) was 65.5%, the viability, T/C (second compound 0.316 µM, first compound 0.0949 µM) was 67.2% and the viability, T/C (second compound 0.316 µM, first compound 0.3 µM) was 51.9%. For the same molecule, the viability, T/C (second compound 0.316 µM, first compound 0.949 µM) was 36.6%, the viability, T/C (second compound 0.316 µM, first compound 3 µM) was 13.4% and the viability, T/C (second compound 1 µM, first compound 0.00949 µM) was 58.8%. It also gave a viability, T/C (second compound 1 µM, first compound 0.03 µM) of 49.2%, a viability, T/C (second compound 1 µM, first compound 0.0949 µM) of 38% and a viability, T/C (second compound 1 µM, first compound 0.3 µM) of 29.3%. It also gave a viability, T/C (second compound 1 µM, first compound 0.949 µM) of 25.9%, a viability, T/C (second compound 1 µM, first compound 3 µM) of 15% and a viability, T/C (second compound 3.16 µM, first compound 0.00949 µM) of 32.1%. The viability, T/C (second compound 3.16 µM, first compound 0.03 µM) was 42%, the viability, T/C (second compound 3.16 µM, first compound 0.0949 µM) was 35.3% and the viability, T/C (second compound 3.16 µM, first compound 0.3 µM) was 21.6%. The viability, T/C (second compound 3.16 µM, first compound 0.949 µM) was 17.2%, the viability, T/C (second compound 3.16 µM, first compound 3 µM) was 9.63% and the viability, T/C (second compound 10 µM, first compound 0.00949 µM) was 46.4%. The viability, T/C (second compound 10 µM, first compound 0.03 µM) was 48.7%, the viability, T/C (second compound 10 µM, first compound 0.0949 µM) was 38.3% and the viability, T/C (second compound 10 µM, first compound 0.3 µM) was 35.2%. It also gave a viability, T/C (second compound 10 µM, first compound 0.949 µM) of 22.1% and a viability, T/C (second compound 10 µM, first compound 3 µM) of 4.04%.
